# Measurements: patent US11168073B2, “3,3-difluoroallylamines or salts thereof and pharmaceutical compositions comprising the same” (YUHAN CORPORATION, priority 2018, dated 2021)
# Structures can show the parent of a compound that is named as a salt.
# Key:
# Type in all cases: biochemical
# [1] = biological target: T1, recombinant human MAO-A (monoamine oxidase-A) (Homo sapiens, UniProt P21397); experiment: Activity evaluation on recombinant human MAO-A (Amplex Red/HRP-coupled assay, 0.5 mM tyramine substrate); conditions: 0.5 mM tyramine substrate, read-out: Inhibitory Activity (IC50, nM) MAO-A
# T1 construct: purchased Sigma-Aldrich
# T1 sequence (P21397 1-527): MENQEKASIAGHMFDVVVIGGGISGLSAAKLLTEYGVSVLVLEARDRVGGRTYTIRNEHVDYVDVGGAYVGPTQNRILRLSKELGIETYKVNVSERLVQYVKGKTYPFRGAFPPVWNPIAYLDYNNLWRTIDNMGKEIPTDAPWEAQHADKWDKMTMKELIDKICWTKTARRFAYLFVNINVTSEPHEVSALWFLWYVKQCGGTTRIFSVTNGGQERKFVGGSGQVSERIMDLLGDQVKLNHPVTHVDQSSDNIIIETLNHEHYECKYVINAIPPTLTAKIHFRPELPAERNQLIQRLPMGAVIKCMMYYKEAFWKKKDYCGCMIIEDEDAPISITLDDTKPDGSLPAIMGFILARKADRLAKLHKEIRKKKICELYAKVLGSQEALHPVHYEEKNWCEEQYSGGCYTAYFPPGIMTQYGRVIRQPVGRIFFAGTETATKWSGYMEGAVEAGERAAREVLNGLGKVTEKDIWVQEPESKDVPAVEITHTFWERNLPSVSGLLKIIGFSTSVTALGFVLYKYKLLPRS
# In short: (§1)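 Compounds preincubated 30 min at 37 °C with enzyme in 50 mM sodium phosphate pH 7.4 (final DMSO <1%, 8-point 1:3 dilutions); reaction started with 200 uM Amplex Red, 1 U/mL HRP and substrate (MAO-A 0.5 mM tyramine, MAO-B 1 mM benzylamine, DAO 1 mM putrescine). Resorufin fluorescence (ex 544/em 590 nm) followed over 1-2 h; IC50 from four-parameter logistic fit.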
# [2] = biological target: T2, recombinant human DAO (diamine oxidase) (Homo sapiens, UniProt P19801); experiment: Activity evaluation on recombinant human DAO (Amplex Red/HRP-coupled assay, 1 mM putrescine substrate); conditions: 1 mM putrescine substrate, read-out: Inhibitory Activity (IC50, nM) DAO
# T2 construct: purchased R&D systems
# T2 sequence (P19801 20-751): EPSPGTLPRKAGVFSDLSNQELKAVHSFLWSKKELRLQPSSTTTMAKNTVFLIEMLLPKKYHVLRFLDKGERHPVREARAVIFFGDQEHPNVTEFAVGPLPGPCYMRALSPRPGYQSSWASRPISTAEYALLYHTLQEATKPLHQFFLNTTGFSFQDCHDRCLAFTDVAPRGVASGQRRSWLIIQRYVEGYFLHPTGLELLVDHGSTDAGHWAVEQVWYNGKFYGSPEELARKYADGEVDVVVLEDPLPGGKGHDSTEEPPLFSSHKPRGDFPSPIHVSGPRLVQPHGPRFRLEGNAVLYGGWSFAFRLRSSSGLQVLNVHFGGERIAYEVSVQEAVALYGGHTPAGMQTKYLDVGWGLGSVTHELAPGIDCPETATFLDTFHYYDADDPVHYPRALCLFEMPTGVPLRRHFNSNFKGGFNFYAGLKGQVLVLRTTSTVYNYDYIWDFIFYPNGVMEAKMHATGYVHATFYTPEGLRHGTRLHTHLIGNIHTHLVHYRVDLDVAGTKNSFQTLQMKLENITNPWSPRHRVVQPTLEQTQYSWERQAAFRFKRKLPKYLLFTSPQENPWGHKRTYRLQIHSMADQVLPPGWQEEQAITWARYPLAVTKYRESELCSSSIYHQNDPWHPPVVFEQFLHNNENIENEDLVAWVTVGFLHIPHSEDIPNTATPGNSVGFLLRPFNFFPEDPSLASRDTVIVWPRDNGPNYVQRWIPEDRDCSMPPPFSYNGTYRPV
# In short: as §1
# [3] = biological target: T3, recombinant human MAO-B (monoamine oxidase-B) (Homo sapiens, UniProt P27338); experiment: Activity evaluation on recombinant human MAO-B (Amplex Red/HRP-coupled assay, 1 mM benzylamine substrate); conditions: 1 mM benzylamine substrate, read-out: Inhibitory Activity (IC50, nM) MAO-B
# T3 construct: purchased Sigma-Aldrich
# T3 sequence (P27338 1-520): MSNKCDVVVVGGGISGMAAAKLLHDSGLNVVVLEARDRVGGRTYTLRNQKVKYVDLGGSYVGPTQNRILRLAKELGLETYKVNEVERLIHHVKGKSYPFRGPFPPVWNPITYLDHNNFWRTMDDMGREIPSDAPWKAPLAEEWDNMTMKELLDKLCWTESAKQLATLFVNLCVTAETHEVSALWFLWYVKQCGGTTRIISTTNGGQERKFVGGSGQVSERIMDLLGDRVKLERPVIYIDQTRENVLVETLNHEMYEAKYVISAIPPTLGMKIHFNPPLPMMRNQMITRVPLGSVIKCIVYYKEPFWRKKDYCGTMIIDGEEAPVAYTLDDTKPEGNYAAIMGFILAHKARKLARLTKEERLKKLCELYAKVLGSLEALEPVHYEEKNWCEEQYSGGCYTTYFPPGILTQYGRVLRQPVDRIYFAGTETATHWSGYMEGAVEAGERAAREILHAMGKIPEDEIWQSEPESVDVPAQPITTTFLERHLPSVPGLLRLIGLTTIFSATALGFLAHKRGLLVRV
# In short: as §1
# recombinant human VAP-1 = biological target: T4, recombinant human VAP-1 (Homo sapiens, UniProt Q16853); experiment: Activity evaluation on recombinant human VAP-1 (Amplex Red/HRP-coupled hydrogen peroxide assay, benzylamine substrate); conditions: recombinant human VAP-1, benzylamine substrate; read-out: Inhibitory Activity (IC50, nM) human VAP-1
# T4 construct: purchased R&D systems
# T4 sequence (Q16853 1-763): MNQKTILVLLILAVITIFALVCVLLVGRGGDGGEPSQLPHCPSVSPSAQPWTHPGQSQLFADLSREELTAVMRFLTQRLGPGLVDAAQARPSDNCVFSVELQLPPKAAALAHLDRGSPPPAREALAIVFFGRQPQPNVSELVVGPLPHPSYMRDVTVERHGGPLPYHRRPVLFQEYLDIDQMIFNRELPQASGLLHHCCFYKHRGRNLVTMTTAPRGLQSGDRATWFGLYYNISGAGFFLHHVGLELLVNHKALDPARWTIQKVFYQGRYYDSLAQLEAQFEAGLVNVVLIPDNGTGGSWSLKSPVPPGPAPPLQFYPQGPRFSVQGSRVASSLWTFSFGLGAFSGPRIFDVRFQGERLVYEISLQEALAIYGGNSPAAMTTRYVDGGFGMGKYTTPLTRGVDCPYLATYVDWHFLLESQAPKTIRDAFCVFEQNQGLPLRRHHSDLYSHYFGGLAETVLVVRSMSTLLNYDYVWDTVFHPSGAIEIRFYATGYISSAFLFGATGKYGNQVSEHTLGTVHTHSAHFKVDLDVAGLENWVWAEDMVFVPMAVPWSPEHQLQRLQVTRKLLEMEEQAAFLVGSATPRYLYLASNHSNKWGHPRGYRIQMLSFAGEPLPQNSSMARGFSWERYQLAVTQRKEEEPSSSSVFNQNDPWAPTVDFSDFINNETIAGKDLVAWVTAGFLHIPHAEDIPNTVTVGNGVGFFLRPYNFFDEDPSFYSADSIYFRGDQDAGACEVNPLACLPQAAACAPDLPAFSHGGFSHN
# In short: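 Recombinant human VAP-1 in 50 mM sodium phosphate pH 7.4 preincubated 30 min at 37 °C with compound (8-point 1:3 series, <1% DMSO), then 1 mM benzylamine, 200 uM Amplex Red, 1 U/mL HRP added. H2O2-derived resorufin fluorescence (ex 544/em 590) followed 1–2 h; IC50 from four-parameter fit of rate inhibition.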
Structure (SMILES),IC50 [1] [nM],IC50 [2] [nM],IC50 [3] [nM],IC50 (recombinant human VAP-1) [nM]
"CN(C)C(=O)c1cccc(-c2ccc(Cn3cnn(CC(CN)=C(F)F)c3=O)s2)c1 [Example 181, 3-[5-[[1-[2-(aminomethyl)-3,3-difluoro-allyl]-5-oxo-1,2,4-triazol-4-yl]methyl]-2-thienyl]-N,N-dimethyl-benzamide trifluoroacetate]",> 100000,> 10000,> 100000,2.3
"CN1Cc2cc(-c3ccc(Cn4cnn(CC(CN)=C(F)F)c4=O)s3)ccc2NC1=O [Example 182, 6-[5-[[1-[2-(aminomethyl)-3,3-difluoro-allyl]-5-oxo-1,2,4-triazol-4-yl]methyl]-2-thienyl]-3-methyl-1,4-dihydroquinazolin-2-one Trifluoroacetate]",> 100000,> 100000,> 100000,0.2
"NCC(Cn1ncn(Cc2ccc(-c3cnn(C(F)F)c3)s2)c1=O)=C(F)F [Example 183, 2-[2-(aminomethyl)-3,3-difluoro-allyl]-4-[[5-[1-(difluoromethyl)pyrazol-4-yl]-2-thienyl]methyl]-1,2,4-triazol-3-one Trifluoroacetate]",> 100000,> 100000,2100,1.4
"CC(C)n1cc(-c2ccc(Cn3cnn(CC(CN)=C(F)F)c3=O)s2)cn1 [Example 184, 2-[2-(aminomethyl)-3,3-difluoro-allyl]-4-[[5-(1-isopropylpyrazol-4-yl)-2-thienyl]methyl]-1,2,4-triazol-3-one Trifluoroacetate]",> 100000,72000,26000,2.6
"NCC(Cn1ncn(Cc2ccc(-c3cccc(-c4nc[nH]n4)c3)s2)c1=O)=C(F)F [Example 185, 2-[2-(aminomethyl)-3,3-difluoro-allyl]-4-[[5-[3-(1H-1,2,4-triazol-3-yl)phenyl]-2-thienyl]methyl]-1,2,4-triazol-3-one Trifluoroacetate]",> 100000,> 100000,28000,1.3
"CN1Cc2cc(-c3csc(Cn4cnn(CC(CN)=C(F)F)c4=O)c3)ccc2NC1=O [Example 186, 6-[5-[[1-[2-(aminomethyl)-3,3-difluoro-allyl]-5-oxo-1,2,4-triazol-4-yl]methyl]-3-thienyl]-3-methyl-1,4-dihydroquinazolin-2-one Trifluoroacetate]",> 100000,25000,> 100000,0.5
"CC(C)n1cc(-c2csc(Cn3cnn(CC(CN)=C(F)F)c3=O)c2)ccc1=O [Example 187, 5-[5-[[1-[2-(aminomethyl)-3,3-difluoro-allyl]-5-oxo-1,2,4-triazol-4-yl]methyl]-3-thienyl]-1-isopropyl-pyridin-2-one Trifluoroacetate]",> 100000,8900,> 100000,1.1
"CC(=O)N1CCN(c2ccc(-c3csc(Cn4cnn(CC(CN)=C(F)F)c4=O)c3)cc2)CC1 [Example 188, 4-[[4-[4-(4-acetylpiperazin-1-yl)phenyl]-2-thienyl]methyl]-2-[2-(aminomethyl)-3,3-difluoro-allyl]-1,2,4-triazol-3-one Trifluoroacetate]",> 100000,7400,> 100000,3.4
"NCC(Cn1ncn(Cc2cc(-c3cc(F)c4[nH]c(=O)ccc4c3)cs2)c1=O)=C(F)F [Example 189, 6-[5-[[1-[2-(aminomethyl)-3,3-difluoro-allyl]-5-oxo-1,2,4-triazol-4-yl]methyl]-3-thienyl]-8-fluoro-1H-quinolin-2-one Trifluoroacetate]",> 100000,23000,> 100000,0.5
"Cn1cc(-c2csc(Cn3cnn(CC(CN)=C(F)F)c3=O)c2)ccc1=O [Example 190, 5-[5-[[1-[2-(aminomethyl)-3,3-difluoro-allyl]-5-oxo-1,2,4-triazol-4-yl]methyl]-3-thienyl]-1-methyl-pyridin-2-one Trifluoroacetate]",> 100000,63000,> 100000,1.4
"NCC(Cn1ncn(Cc2cc(-c3ccc4c(c3)COC(=O)N4)cs2)c1=O)=C(F)F [Example 191, 6-[5-[[1-[2-(aminomethyl)-3,3-difluoro-allyl]-5-oxo-1,2,4-triazol-4-yl]methyl]-3-thienyl]-1,4-dihydro-3,1-benzoxazin-2-one Trifluoroacetate]",> 100000,4200,44000,0.3
"NCC(Cn1ncn(Cc2cc(-c3ccc4c(c3)CCC(=O)N4)cs2)c1=O)=C(F)F [Example 192, 6-[5-[[1-[2-(aminomethyl)-3,3-difluoro-allyl]-5-oxo-1,2,4-triazol-4-yl]methyl]-3-thienyl]-3,4-dihydro-1H-quinolin-2-one Trifluoroacetate]",> 100000,22000,56000,0.4
"CCn1cc(-c2csc(Cn3cnn(CC(CN)=C(F)F)c3=O)c2)ccc1=O [Example 193, 5-[5-[[1-[2-(aminomethyl)-3,3-difluoro-allyl]-5-oxo-1,2,4-triazol-4-yl]methyl]-3-thienyl]-1-ethyl-pyridin-2-one Trifluoroacetate]",> 100000,8700,> 100000,1.3
